The values that follow are results of earlier work, collected in PubChem BioAssay AID1259410 (Chemical Carcinogenesis Research Information System (CCRIS), 2018).

Molecules are shown by their SMILES.

This data set relates to rodent tumor promotion studies, tumor incidence. Nature of the data set: CCRIS tumor promotion studies.
The mark [1] stands for this setting: Carcinogen: 7,12-DIMETHYLBENZ(A)ANTHRACENE, Doses [Carcinogen]: TOP, Route [Carcinogen]: DERMAL, Route [Promoter]: DERMAL, Species: MOUSE, Strain/Sex: FEMALE.

For the compound `O=CC=O`, under “Carcinogen: N-METHYL-N'-NITRO-N-NITROSOGUANIDINE, 70-25-7, Doses [Carcinogen]: 100 MG/L IN DRINKING WATER FOR 8 WK, Doses [Promoter]: 0, 0.5% IN DRINKING WATER BEGINNING POST LAST CARCINOGEN DOSE AND CONTINUING FOR 32 WK (STUDY DURATION: 40 WK), Route [Carcinogen]: ORAL, Route [Promoter]: ORAL, Species: RAT, Strain/Sex: WISTAR/MALE”, the outcome is recorded as “glandular stomach (pylorus): adenocarcinoma”.

Regarding `CC(=O)OO`, the outcome under setting [1] is on record as “integumentary system (skin)”.

For `C[C@H](CCC(=O)O)[C@H]1CC[C@H]2[C@@H]3CC[C@@H]4C[C@H](O)CC[C@]4(C)[C@H]3C[C@H](O)[C@]12C`, the outcome is listed as “colon: tumor” (Carcinogen: AZOXYMETHANE, 25843-45-2, Doses [Carcinogen]: 7.4 MG/KG BW/WK FOR 5 WK, Doses [Promoter]: 0, 0.3% OF CHOW PELLETS FOR 45 WK BEGINNING FROM START OF ADMINISTRATION OF CARCINOGEN (STUDY DURATION: 45 WK), Route [Carcinogen]: SUBCUTANEOUS, Route [Promoter]: ORAL, Species: RAT, Strain/Sex: WISTAR/MALE); “liver: hepatocellular carcinoma or cholangiocarcinoma” (Carcinogen: DIETHYLNITROSAMINE, 55-18-5, 2-(ACETYLAMINO)FLUORENE, 6292-55-3, Carcinogen: DIETHYLNITROSAMINE, 55-18-5, 2-(ACETYLAMINO)FLUORENE, 6292-55-3, Doses [Carcinogen]: 200 MG/KG DEN FOLLOWED 2 WK LATER BY 0.03% 2AAF IN DIET FOR 2 WK PLUS 2 ML/KG CCL4 IN THE MIDDLE OF TREATMENT, Doses [Promoter]: 0.5% IN DIET BEGINNING 1 WK POST CARCINOGEN TREATMENT AND CONTINUING FOR DURATION OF TREATMENT (STUDY DURATION: 35 WK), Route [Carcinogen]: INTRAPERITONEAL, ORAL, Route [Promoter]: ORAL, Species: RAT, Strain/Sex: WISTAR/MALE); “liver: tumor” (Carcinogen: DIETHYLNITROSAMINE, 55-18-5, 2-ACETYLAMINO-FLUORENE, 53-96-3, CARBON TETRACHLORIDE, 56-23-5, Carcinogen: DIETHYLNITROSAMINE, 55-18-5, 2-ACETYLAMINO-FLUORENE, 53-96-3, CARBON TETRACHLORIDE, 56-23-5, Doses [Carcinogen]: 200 NMOL DEN ONCE FOLLOWED 2 WK LATER BY 0.03% 2AAF IN DIET PLUS 2 ML/MG CC14 IN THE MIDDLE OF 2AAF TREATMENT OF 3 WK, Doses [Promoter]: 0, 0.5% IN DIET BEGINNING POST CARCINOGEN TREATMENT AND CONTINUING FOR 30 WK (STUDY DURATION: 35 WK), Route [Carcinogen]: INTRAPERITONEAL, ORAL, Route [Carcinogen]: INTRAPERITONEAL, ORAL, Route [Promoter]: ORAL, Species: RAT, Strain/Sex: WISTAR/MALE); “esophagus: papilloma” (Carcinogen: N-METHYL-N-AMYLNITROSAMINE, 13256-07-0, Doses [Carcinogen]: 0.003% IN DRINKING WATER FOR 8 WK FOLLOWED BY TAP WATER FOR 20 WK, Doses [Promoter]: 0, 0.2% IN DIET BEGINNING POST CARCINOGEN TREATMENT AND CONTINUING FOR 20 WK (STUDY DURATION: 28 WK), Route [Carcinogen]: ORAL, Route [Promoter]: ORAL, Species: RAT, Strain/Sex: WISTAR/MALE); “esophagus: papilloma” (Carcinogen: N-METHYL-N-AMYLNITROSAMINE, 13256-07-0, Doses [Carcinogen]: 0.003% IN DRINKING WATER FOR 8 WK FOLLOWED BY TAP WATER FOR 20 WK, Doses [Promoter]: 0, 0.2% IN DIET FOR 8 WK SIMULTANEOUSLY WITH CARCINOGEN TREATMENT (STUDY DURATION: 28 WK), Route [Carcinogen]: ORAL, Route [Promoter]: ORAL, Species: RAT, Strain/Sex: WISTAR/MALE); “esophagus: carcinoma, papilloma” (Carcinogen: N-METHYL-N-AMYLNITROSAMINE, 13256-07-0, Doses [Carcinogen]: 0.003% IN DRINKING WATER FOR 8 WK FOLLOWED BY TAP WATER FOR 20 WK, Doses [Promoter]: 0, 0.2% IN DIET FOR DURATION OF STUDY (STUDY DURATION: 28 WK), Route [Carcinogen]: ORAL, Route [Promoter]: ORAL, Species: RAT, Strain/Sex: WISTAR/MALE). The outcome (Doses [Carcinogen]: IR, Route [Carcinogen]: RECTAL, Route [Promoter]: RECTAL, Species: RAT, Strain/Sex: FEMALE) is reported as “colon”.

As to `CC(C)(Oc1ccc(Cl)cc1)C(=O)O`, the outcome (Carcinogen: Diethylnitrosamine (DEN), 55-18-5, Doses [Carcinogen]: 30 mg/kg, single injection 12 d before initial administration of clofibrate, Doses [Promoter]: 0.5% in diet for up to 12 or 20 mo, Route [Carcinogen]: Intraperitoneal, Route [Promoter]: Oral, Species: Rat, Strain/Sex: F344/Male (175 divided into 4 groups, Vehicle control, DEN, DEN + clofibrate, and clofibrate)) was “liver: den injection accelerated the appearance of tumors without detectably mod”.

Take `C=CC1CC=CCC1` (configuration not stated): the outcome (Carcinogen: 7,12-Dimethylbenz(a)anthracene, 57-97-6, Doses [Carcinogen]: 100 ug once in sesame oil, administered 4 mo after vinylcyclohexene diepoxide dosing, Doses [Promoter]: 160 mg/kg bw for 25 days, administered daily in sesame oil, study duration 3 or 5 months, Route [Carcinogen]: Directly on ovary, Route [Promoter]: Intraperitoneal, Species: Rat, Strain/Sex: Fischer 344/Female) is “ovary: tumors (non-neoplastic cystic ovaries also observed)”.

On to `O=C(OOC(=O)c1ccccc1)c1ccccc1`, for which the outcome reads like this: under setting [1], “integumentary system (skin)”; (Carcinogen: 7,12-DIMETHYLBENZ[A]ANTHRACENE, 57-97-6, Doses [Carcinogen]: 0.1% IN MINERAL OIL APPLIED TO BUCCAL POUCHES 3/WK FOR 10 WK, Doses [Promoter]: 0, 40% IN ACETONE APPLIED TO BUCCAL POUCHES 3/WK FOR 6 WK BEGINNING 6 WK POST CARCINOGEN TREATMENT (STUDY DURATION: 25 W, Route [Carcinogen]: DERMAL, Route [Promoter]: DERMAL, Species: HAMSTER, Strain/Sex: SYRIAN/MALE, FEMALE) “buccal pouch: tumor, carcinoma”; (Carcinogen: 7,12-DIMETHYLBENZ[A]ANTHRACENE, 57-97-6, Doses [Carcinogen]: 20 NMOL IN ACETONE ONCE, Doses [Promoter]: 0, 0.2 ML OF 100 MG/ML SOLUTION IN ACETONE 2/WK FOR 51 WK (STUDY DURATION: 52 WK), Route [Carcinogen]: DERMAL, Route [Promoter]: DERMAL, Species: MOUSE, Strain/Sex: SENCAR/FEMALE) “skin: squamous cell carcinoma”; (Carcinogen: N-METHYL-N'-NITRO-N-NITROSOGUANIDINE, 70-25-7, Doses [Carcinogen]: 4 UMOL IN 200 µL ACETONE ONCE, Doses [Promoter]: 0, 10, 20 MG IN 200 µL ACETONE 2/WK FOR 52 WK BEGINNING 2 WK POST CARCINOGEN DOSE (STUDY DURATION: 52 WK), Doses [Promoter]: 0, 10, 20 MG IN 200 µL ACETONE 2/WK FOR 52 WK BEGINNING 2 WK POST CARCINOGEN DOSE (STUDY DURATION: 52 WK), Route [Carcinogen]: DERMAL, Route [Promoter]: DERMAL, Species: MOUSE, Strain/Sex: C3H/FEMALE) “skin: tumor”.

As to `CC(O)CN(C)N=O` (configuration not stated), the outcome (Carcinogen: 1-NITRO-1,3-DIMETHYLUREA, 13256-32-1, Doses [Carcinogen]: 10 MG/ML IN ETHYL ACETATE/CORN OIL (1:1) 1/WK FOR 2 WK, Doses [Promoter]: 0, 20 MG/L IN DRINKING WATER 5D/WK FOR 40 WK BEGINNING 1/WK POST CARCINOGEN TREATMENT (STUDY DURATION: 43 WK), Route [Carcinogen]: GAVAGE, Route [Promoter]: ORAL, Species: RAT, Strain/Sex: F344/MALE) is given as “kidney: nephroblastoma”; the outcome (Carcinogen: 1-NITROSO-1,3-DIETHYLUREA, 49540-32-1, Doses [Carcinogen]: 12 MG/ML IN ETHYL ACETATE/CORN OIL (1:1) 1/WK FOR 2 WK, Doses [Promoter]: 0, 20 MG/L IN DRINKING WATER 5 D/WK FOR 40 WK BEGINNING 1/WK POST CARCINOGEN TREATMENT (STUDY DURATION: 43 WK), Route [Carcinogen]: GAVAGE, Route [Promoter]: ORAL, Species: RAT, Strain/Sex: F344/MALE) is reported as “thyroid: adenocarcinoma; lung: adenocarcinoma; kidney: nephroblastoma”; the outcome (Carcinogen: NITROSOBIS(2-OXOPROPYL)AMINE, 60599-38-4, Doses [Carcinogen]: 12 MG/ML IN ETHYL ACETATE/CORN OIL (1:1) 2/WK FOR 2 WK, Doses [Promoter]: 0, 20 MG/L IN DRINKING WATER 5D/WK FOR 40 WK BEGINNING 1/WK POST CARCINOGEN TREATMENT (STUDY DURATION: 43 WK), Route [Carcinogen]: GAVAGE, Route [Promoter]: ORAL, Species: RAT, Strain/Sex: F344/MALE) is reported as “kidney: renal cell carcinoma”.

Take `C=O`: the outcome is, setting by setting: (Carcinogen: Benzo[a]pyrene, 50-32-8, Doses [Carcinogen]: 150 mg applied once, Doses [Promoter]: 0 (acetone), 0.1, 0.5, 1.0 mg/mouse, 3x.wk for 26 wk, study duration 26 wk, Doses [Promoter]: 0 (acetone), 0.1, 0.5, 1.0 mg/mouse, 3x.wk for 26 wk, study duration 26 wk, Route [Carcinogen]: Not reported, Route [Promoter]: Dermal, Species: Mouse, Strain/Sex: CD-1/Female (30/Group)) “skin: results were negative”; (Carcinogen: N,N-Diethylnitrosamine, 55-18-5, Doses [Carcinogen]: 0.5 mg injections once a wk for 10 wk, Doses [Promoter]: 30 ppm weekly doses in various combinations from wk 12 for life of the animal, Route [Carcinogen]: Subcutaneous, Route [Promoter]: Inhalation, Species: Hamster, Strain/Sex: Syrian golden/Male (50/Group_) “nasal epithelium: results were negative”.

As to `C=CC(C)(C)c1ccc2c3c(c[nH]c13)C[C@@H](CO)NC(=O)[C@H](C(C)C)N2C`, under “Carcinogen: DIMETHYLBENZ[A]ANTHRACENE, 57-97-6, Doses [Carcinogen]: 100 UG IN 100 µL ACETONE APPLIED TO THE BACK ONCE, Doses [Promoter]: 5 UG IN 100 ML ACETONE APPLIED TO THE BACK 2/WK FOR 15 WK BEGINNING 1 WK POST CARCINOGEN DOSE THEN 10 UG 2/WK FOR 15 WK, Route [Carcinogen]: DERMAL, Route [Promoter]: DERMAL, Species: MOUSE, Strain/Sex: CD-1/FEMALE”, the outcome is on record as “skin: papilloma”.

Take `OCl`: under “Carcinogen: 4-NITROQUINOLINE-1-OXIDE, Doses [Carcinogen]: TOP, Route [Carcinogen]: DERMAL, Route [Promoter]: DERMAL, Species: MOUSE, Strain/Sex: FEMALE”, the outcome is given as “integumentary system (skin)”.
